Measured values reported in US7109364B2, “Group of anti-cancer compounds with specific structure and their production method” (priority 2000, dated 2006).
Converted amounts (≈) assume the structure as drawn. Read-outs that look alike come from different tables or passages of the source.

Key:
[1] = tested on: K562 human leukemia cell line; assay: In vitro anti-cancer efficacy, K562, trypan blue dye exclusion, 48 hours; format: cell-based; conditions: for IC50 / IC90: Homo sapiens; for IC50: read-out: K562 IC50; for IC90: read-out: K562 IC90
Description: (§1) The above compounds were dissolved in DMSO at stock concentration of 10 mg/ml and stored at 4° C. Before each experiment they were diluted to desired concentration with serum-free RPMI 1640 medium
1. K562 human leukemia cell line: K562 cells were maintained in RPMI 1640 medium with 5% fetal bovine serum at 37° C. under 5% CO2 atmosphere. 4×10^4 cells/well were plated on 96-well plate. After treatment with the test compounds and solvent control (DMSO) for 48 hours, numbers of live cells were counted by trypan blue dye exclusion.
(§2) Reagents and Methods: same as in Experiment 1.

[2] = tested on: B16 mouse melanoma cell line; assay: In vitro anti-cancer efficacy, B16, SRB method, 48 hours; format: cell-based; conditions: for IC50 / IC90: Mus musculus; for IC50: read-out: B16 IC50; for IC90: read-out: B16 IC90
Description: as §1
2. B16 mouse melanoma cell line: B16 cells were maintained under the same condition as above. 2×10^4 cells/well were plated on 48-well plate and left for 12 hours for attachment. Cells were then treated with the test compounds and solvent control for 48 hours. Numbers of live cells were determined by SRB method. Briefly, cells were fixed with 50 μl/well 15% TCA for 1 hour, and then washed three times with double-distilled water. After drying 50 μl/well 1% SRB dye was added and reacted for 10 minutes. Plate was washed with 1% acetic acid. 0.2 ml Tris buffer (pH 9.6) was added and OD510 was recorded.
as §2

[3] = tested on: Mouse cervical carcinoma U14; assay: In vivo anti-cancer efficacy, solid tumor model
Excerpt: Mouse cervical carcinoma U14 model was used to compare in vivo anti-cancer efficacy of 15-methyl-2-hexadecenoic acid, 13-methyl-tetradecanoic acid and the chemotherapy drug cytoxan (CTX).
40 male ICR strain mice, weighing 19–22 g, were randomly divided into 4 groups of 10 each. U14 cervical carcinoma mass (about 2 mm^3 each) was transplanted subcutaneously into the right armpits of all animals following standard procedure. The test group was given 15-methyl-2-hexadecenoic acid and 13-methyl-tetradecanoic acid at 0.4 g/kg, respectively, intragastrically (i.g.) daily for 11 days. The positive control group was given a single dose of CTX i.g. (25 mg/kg) on day 1. Negative control group was given normal saline (N.S.) at 0.2 ml/10 g daily for 11 days. On the 12th day, all mice were sacrificed and the tumors were isolated and weighed. The tumor inhibition rate (TIR) was calculated and subject to t test.

[4] = K562, Table 2, unit inferred, methods same as in Experiment 1
[5] = Table 2, unit inferred, methods same as in Experiment 1

Structure (SMILES) | IC50 ([1]; K562, Table 1, 48 hours) [µg/mL] | IC90 ([1]; K562, Table 1, 48 hours) [µg/mL] | IC50 ([2]; Table 1, 48 hours) [µg/mL] | IC90 ([2]; Table 1, 48 hours) [µg/mL] | further results
CC(C)CC=CCCCCC(=O)O [9-methyl-6-decenoic acid] |  |  |  |  | IC50 [1, 4]: 50.8 µg/mL (≈ 276 µM); IC90 [1, 4]: 83 µg/mL (≈ 450 µM); IC50 [2, 5]: 90 µg/mL (≈ 488 µM); IC90 [2, 5]: 269 µg/mL (≈ 1460 µM)
CC(C)CCCCCCCC(=O)O [9-methyl-decanoic acid, reference compound] |  |  |  |  | IC50 [1, 4]: 55.5 µg/mL (≈ 298 µM); IC90 [1, 4]: 87 µg/mL (≈ 467 µM); IC50 [2, 5]: 97 µg/mL (≈ 521 µM); IC90 [2, 5]: 280 µg/mL (≈ 1500 µM)
CC(C)CCCCCCCCCCCC(=O)O [13-methyl-tetradecanoic acid] |  |  |  |  | TIR (tumor inhibition rate) ([3]; day 12, test compounds 0.4 g/kg i.g. daily 11 days, CTX 25 mg/kg i.g. single dose): 64.6%; Tumor W. ([3]; day 12, test compounds 0.4 g/kg i.g. daily 11 days, CTX 25 mg/kg i.g. single dose, ± SD): 0.93 ± 0.32 g; Body W. D1 ([3]; mouse, in vivo): 20.7 ± 0.7 g
CC(C)CCCCCCCC=CCCCCC(=O)O [15-methyl-6-hexadecenoic acid] |  |  |  |  | IC50 [1, 4]: 23.8 µg/mL (≈ 88.7 µM); IC90 [1, 4]: 30.5 µg/mL (≈ 114 µM); IC50 [2, 5]: 21.3 µg/mL (≈ 79.3 µM); IC90 [2, 5]: 35.2 µg/mL (≈ 131 µM)
CC(C)CCCCCCCCCCCCCC(=O)O [15-methyl-hexadecanoic acid, reference compound] |  |  |  |  | IC50 [1, 4]: 25.9 µg/mL (≈ 95.8 µM); IC90 [1, 4]: 35.6 µg/mL (≈ 132 µM); IC50 [2, 5]: 20.7 µg/mL (≈ 76.5 µM); IC90 [2, 5]: 38.2 µg/mL (≈ 141 µM)
CC(C)CCCCCCCCCCCC(=O)Nc1ccc(S(=O)(=O)O)cc1 [Compound 2, N-(4-Sulfo-phenyl)-13-methyl tetradecamide] |  |  |  |  | K562 IC50 ([1]; Table 1, 48 hours): 27.1 µg/mL; K562 IC90 ([1]; Table 1, 48 hours): 37.8 µg/mL; B16 IC50 ([2]; Table 1, 48 hours): 25.4 µg/mL; B16 IC90 ([2]; Table 1, 48 hours): 35.7 µg/mL
CC(C)CCCCCCCCCCCC(=O)NCC(=O)O [Compound 3, N-(13-methyl-tetradecanoyl)glycine] | 14.7 (≈ 49.1 µM) | 21.9 (≈ 73.1 µM) | 12.8 (≈ 42.7 µM) | 20.1 (≈ 67.1 µM) | 
CC(C)CCCCCCCCCCCC(=O)N[C@@H](C)C(=O)O [Compound 4, N-(13-methyl-tetradecanoyl)-L-alanine] | 11.2 (≈ 35.7 µM) | 20.7 (≈ 66 µM) | 14.8 (≈ 47.2 µM) | 18.4 (≈ 58.7 µM) | 
CC(C)CCCCCCCCCCCC(=O)N[C@@H](Cc1ccccc1)C(=O)O [Compound 5, N-(13-methyl-tetradecanoyl)-L-phenylalanine] | 10.3 (≈ 26.4 µM) | 19.6 (≈ 50.3 µM) | 13.4 (≈ 34.4 µM) | 20.5 (≈ 52.6 µM) | 
CC(C)CCCCCCCCCCCC(=O)N[C@H](C(=O)O)C(C)C [Compound 6, N-(13-methyl-tetradecanoyl)-L-valine] | 18.1 (≈ 53 µM) | 22.5 (≈ 65.9 µM) | 11.7 (≈ 34.3 µM) | 19.2 (≈ 56.2 µM) | 
CC(C)CCCCCCCCCCCC(=O)N[C@@H](CC(C)C)C(=O)O [Compound 7, N-(13-methyl-tetradecanoyl)-L-leucine] | 11.8 (≈ 33.2 µM) | 30.6 (≈ 86.1 µM) | 10.4 (≈ 29.2 µM) | 20.1 (≈ 56.5 µM) | 
CC[C@H](C)[C@H](NC(=O)CCCCCCCCCCCC(C)C)C(=O)O [Compound 8, N-(13-methyl-tetradecanoyl)-L-isoleucine] | 19.3 (≈ 54.3 µM) | 28.6 (≈ 80.4 µM) | 11.1 (≈ 31.2 µM) | 18.9 (≈ 53.2 µM) | 
CC(C)CCCCCCCCCCCC(=O)N[C@@H](CCC(=O)O)C(=O)O [Compound 9, N-(13-methyl-tetradecanoyl)-L-glutamic acid] | 28.2 (≈ 75.9 µM) | 37.9 (≈ 102 µM) | 26.3 (≈ 70.8 µM) | 35.1 (≈ 94.5 µM) | 
CC(C)CCCCCCCCCCCC(=O)N1CCC[C@H]1C(=O)O [Compound 10, N-(13-methyl-tetradecanoyl)-L-proline] |  |  |  |  | IC50 ([1]; K562, 48 h): 17.2 µg/mL (≈ 50.7 µM); IC90 ([1]; K562, 48 h): 25.3 µg/mL (≈ 74.5 µM); IC50 ([2]; 48 h): 15.2 µg/mL (≈ 44.8 µM); IC90 ([2]; 48 h): 17.3 µg/mL (≈ 51 µM)
CC(C)CCCCCCCCCCCC(=O)N[C@@H](C=O)[C@@H](O)[C@H](O)[C@H](O)CO [Compound 11, N-(13-methyl-tetradecanoyl)-2-amino-2-deoxyglucose] | 24.3 (≈ 60.2 µM) | 38.1 (≈ 94.4 µM) | 24.5 (≈ 60.7 µM) | 34.6 (≈ 85.7 µM) | 
CC(C)CCCCCCCCCCCC(=O)Nc1ccc(C(=O)O)c(O)c1 [Compound 12, N-(3-Hydroxy-4-carboxylphenyl)-13-methyl-tetradecanamide] | 18.7 (≈ 49.5 µM) | 24.7 (≈ 65.4 µM) | 16.5 (≈ 43.7 µM) | 22.9 (≈ 60.7 µM) | 
